Where two headings read alike, the source gives them in different places.
Tests used:
Type in all cases: cell-based, Escherichia coli
[1] = test system: EKO-35 araC::macAB; test: MIC susceptibility profiling, efflux platform; conditions: for Fold change of MICs: EKO-35 araC::macAB compared to EKO-35
Procedure, shortened: (§1)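 Overnight LB cultures (37 °C, 18 h) were resuspended in PBS pH 7.4 to OD600 ~1.0 and diluted 1/2000 into MHB II. Strains were exposed to 2-fold serial compound dilutions in duplicate for 18 h at 37 °C with shaking. MIC was read from OD600 after subtracting pre-incubation background.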

[2] = test system: EKO-35 araC::emrAB; test: MIC susceptibility profiling, efflux platform; conditions: for Fold change of MICs: EKO-35 araC::emrAB compared to EKO-35
Procedure, shortened: as §1

[3] = test system: EKO-35 araC::acrBD408A; test: MIC susceptibility profiling, efflux platform; conditions: for Fold change of MICs: EKO-35 araC::acrBD408A compared to EKO-35
Procedure, shortened: as §1

[4] = test system: EKO-35 araC::mdtEF; test: MIC susceptibility profiling, efflux platform; conditions: for Fold change of MICs: EKO-35 araC::mdtEF compared to EKO-35
Procedure, shortened: as §1

[5] = test system: EKO-35 araC::acrEF; test: MIC susceptibility profiling, efflux platform; conditions: for Fold change of MICs: EKO-35 araC::acrEF compared to EKO-35
Procedure, shortened: as §1

[6] = test system: EKO-35 araC::emrKY; test: MIC susceptibility profiling, efflux platform; conditions: for Fold change of MICs: EKO-35 araC::emrKY compared to EKO-35
Procedure, shortened: as §1

[7] = test system: ΔtolC-Pore; test: microbe, parasite or virus in culture; conditions: for Minimum inhibitory concentration (MIC), Pore ΔtolC: Table 10, with pore
Procedure, shortened: (§2)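 Strains carry the fhuA ΔC/Δ4L pore integrated between glmS and pstS under a constitutive promoter, with pore activity checked by vancomycin susceptibility. Overnight LB cultures were adjusted in PBS pH 7.4 to OD600 ~1.0 and diluted 1/2000 into MHB II. 2-fold compound titrations were read by OD600 after 18 h at 37 °C.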

[8] = test system: wild-type (WT) K-12-Pore; test: microbe, parasite or virus in culture; conditions: technical duplicate; for MIC: Escherichia coli
Procedure, shortened: as §2

[9] = test system: EKO-35 araC::emrKY Pore; test: MIC susceptibility profiling, porinated efflux platform; conditions: for Fold changes of MICs: EKO-35 araC::emrKY Pore compared to EKO-35-Pore
Procedure, shortened: as §2

[10] = test system: EKO-35 araC::mexCD Pore; test: as above; conditions: for Fold changes of MICs: EKO-35 araC::mexCD Pore compared to EKO-35-Pore
Procedure, shortened: as §2

[11] = test system: EKO-35 araC::mdtBC Pore; test: as above; conditions: for Fold changes of MICs: EKO-35 araC::mdtBC Pore compared to EKO-35-Pore
Procedure, shortened: as §2

[12] = test system: EKO-35 araC::acrB Pore; test: as above; conditions: for Fold changes of MICs: EKO-35 araC::acr-B Pore compared to EKO-35-Pore
Procedure, shortened: as §2

[13] = test system: EKO-35 araC::macAB Pore; test: as above; conditions: for Fold changes of MICs: EKO-35 araC::macAB Pore compared to EKO-35-Pore
Procedure, shortened: as §2

[14] = test system: EKO-35 araC::acrBD408A Pore; test: as above; conditions: for Fold changes of MICs: EKO-35 araC::acrBD408A Pore compared to EKO-35-Pore
Procedure, shortened: as §2

[15] = test system: EKO-35 araC::emrAB Pore; test: as above; conditions: for Fold changes of MICs: EKO-35 araC::emrAB Pore compared to EKO-35-Pore
Procedure, shortened: as §2

[16] = test system: EKO-35 araC::mdtEF Pore; test: as above; conditions: for Fold changes of MICs: EKO-35 araC::mdtEF Pore compared to EKO-35-Pore
Procedure, shortened: as §2

[17] = test system: EKO-35 araC::acrEF Pore; test: as above; conditions: for Fold changes of MICs: EKO-35 araC::acrEF Pore compared to EKO-35-Pore
Procedure, shortened: as §2

[18] = test system: EKO-35 araC::acrD Pore; test: as above; conditions: for Fold changes of MICs: EKO-35 araC::acrD Pore compared to EKO-35-Pore
Procedure, shortened: as §2

[19] = Table 13B, non-porinated, technical duplicate
[20] = Table 13A, non-porinated, technical duplicate
[21] = Table 14A, porinated, technical duplicate

## C[n+]1c2cc(N)ccc2cc2ccc(N)cc21.[Cl-] [acriflavine]
[1]
  Fold change of MICs: 1 fold
[1]; [19]
  Minimum Inhibitory Concentration, EKO-35 araC::macAB: 0.098 µg/mL
[2]
  Fold change of MICs: 1 fold
[2]; [19]
  Minimum Inhibitory Concentration, EKO-35 araC::emrAB: 0.098 µg/mL
[3]
  Fold change of MICs: 1 fold
[3]; [19]
  Minimum Inhibitory Concentration, EKO-35 araC::acrBD408A: 0.098 µg/mL
[4]
  Fold change of MICs: 2 fold
[4]; [20]
  Minimum Inhibitory Concentration, EKO-35 araC::mdtEF: 0.195 µg/mL
[5]
  Fold change of MICs: 8 fold
[5]; [20]
  Minimum Inhibitory Concentration, EKO-35 araC::acrEF: 0.781 µg/mL
[6]
  Fold change of MICs: 1 fold
[6]; [19]
  Minimum Inhibitory Concentration, EKO-35 araC::emrKY: 0.098 µg/mL
[7]; technical duplicate
  Minimum inhibitory concentration (MIC), Pore ΔtolC: 3.125 µg/mL
[7]; [21]
  Minimum inhibitory concentration, ΔtolC-Pore: 3.125 µg/mL
[8]; Table 10, with pore
  Minimum inhibitory concentration (MIC), Pore K-12: 50 µg/mL
[8]; Table 14A, porinated
  Minimum inhibitory concentration, K-12 (WT)-Pore: 50 µg/mL
[9]
  Fold changes of MICs: 1 fold
[9]; EKO-35 araC::emrKY Pore, technical duplicate
  Minimum inhibitory concentration: 0.098 µg/mL
[10]
  Fold changes of MICs: 4 fold
[10]; EKO-35 araC::mexCD Pore, technical duplicate
  Minimum inhibitory concentration: 0.391 µg/mL
[11]
  Fold changes of MICs: 1 fold
[11]; EKO-35 araC::mdtBC Pore, technical duplicate
  Minimum inhibitory concentration: 0.098 µg/mL
[12]
  Fold changes of MICs: 16 fold
[12]; [21]
  Minimum inhibitory concentration, EKO-35 araC::acrB Pore: 1.563 µg/mL
[13]
  Fold changes of MICs: 2 fold
[13]; EKO-35 araC::macAB Pore, technical duplicate
  Minimum inhibitory concentration: 0.195 µg/mL
[14]
  Fold changes of MICs: 1 fold
[14]; EKO-35 araC::acrBD408A Pore, technical duplicate
  Minimum inhibitory concentration: 0.098 µg/mL
[15]
  Fold changes of MICs: 2 fold
[15]; EKO-35 araC::emrAB Pore, technical duplicate
  Minimum inhibitory concentration: 0.195 µg/mL
[16]
  Fold changes of MICs: 2 fold
[16]; [21]
  Minimum inhibitory concentration, EKO-35 araC::mdtEF Pore: 0.195 µg/mL
[17]
  Fold changes of MICs: 8 fold
[17]; [21]
  Minimum inhibitory concentration, EKO-35 araC::acrEF Pore: 0.781 µg/mL
[18]
  Fold changes of MICs: 2 fold
[18]; [21]
  Minimum inhibitory concentration, EKO-35 araC::acrD Pore: 0.195 µg/mL

## Nc1ccc(S(=O)(=O)Nc2nccs2)cc1 [Sulfathiazole]
[1]
  Fold change of MICs: 1 fold
[2]
  Fold change of MICs: 1 fold
[2]; Escherichia coli, Table 13B, non-porinated, technical duplicate, read-out: Minimum Inhibitory Concentration, EKO-35 araC::emrAB
  MIC: 10 µg/mL
[3]
  Fold change of MICs: 1 fold
[3]; Escherichia coli, Table 13B, non-porinated, technical duplicate, read-out: Minimum Inhibitory Concentration, EKO-35 araC::acrBD408A
  MIC: 10 µg/mL
[4]
  Fold change of MICs: 1 fold
[4]; Escherichia coli, Table 13A, non-porinated, technical duplicate, read-out: Minimum Inhibitory Concentration, EKO-35 araC::mdtEF
  MIC: 10 µg/mL
[5]
  Fold change of MICs: 1 fold
[5]; Escherichia coli, Table 13A, non-porinated, technical duplicate, read-out: Minimum Inhibitory Concentration, EKO-35 araC::acrEF
  MIC: 10 µg/mL
[6]
  Fold change of MICs: 1 fold
[6]; Escherichia coli, Table 13B, non-porinated, technical duplicate, read-out: Minimum Inhibitory Concentration, EKO-35 araC::emrKY
  MIC: 10 µg/mL
[7]; Escherichia coli, 18 h, read-out: Minimum inhibitory concentration, ΔtolC-Pore
  MIC: 2.5 µg/mL
[7]; technical duplicate
  Minimum inhibitory concentration (MIC), Pore ΔtolC: 2.5 µg/mL
[8]; Table 10, with pore, read-out: Minimum inhibitory concentration (MIC), Pore K-12
  MIC: 5 µg/mL
[8]; Table 14A, porinated, read-out: Minimum inhibitory concentration, K-12 (WT)-Pore
  MIC: 5 µg/mL
[9]
  Fold changes of MICs: 1 fold
[10]
  Fold changes of MICs: 1 fold
[11]
  Fold changes of MICs: 1 fold
[12]
  Fold changes of MICs: 2 fold
[12]; Escherichia coli, Table 14A, porinated, technical duplicate, read-out: Minimum inhibitory concentration, EKO-35 araC::acrB Pore
  MIC: 10 µg/mL
[13]
  Fold changes of MICs: 2 fold
[13]; Escherichia coli, EKO-35 araC::macAB Pore, technical duplicate, read-out: Minimum inhibitory concentration
  MIC: 10 µg/mL
[14]
  Fold changes of MICs: 0 fold
[14]; Escherichia coli, EKO-35 araC::acrBD408A Pore, technical duplicate, read-out: Minimum inhibitory concentration
  MIC: 1.25 µg/mL
[15]
  Fold changes of MICs: 2 fold
[15]; Escherichia coli, EKO-35 araC::emrAB Pore, technical duplicate, read-out: Minimum inhibitory concentration
  MIC: 10 µg/mL
[16]
  Fold changes of MICs: 2 fold
[16]; Escherichia coli, Table 14A, porinated, technical duplicate, read-out: Minimum inhibitory concentration, EKO-35 araC::mdtEF Pore
  MIC: 10 µg/mL
[17]
  Fold changes of MICs: 1 fold
[18]
  Fold changes of MICs: 1 fold

Source: US20230407243A1, “GENETIC PLATFORM TO INVESTIGATE THE FUNCTIONS OF BACTERIAL DRUG EFFLUX PUMPS” (priority 2022, published 2023)
